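Briefly, cells in 96-well plates were exposed to five compound concentrations for 48 h, and endpoints were estimated by linear interpolation. GI50: concentration for 50% inhibition of growth.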 Calls of active or inactive are those of the source. Rule as the data show it: active = GI50 up to about 1.1 µM and inactive = higher.
Columns and labels:
Assay in all cases: DTP human tumour cell line panel, 48 h
K562 = system: K562
UACC-62 = system: UACC-62
SK-MEL-28 = system: SK-MEL-28
UO-31 = system: UO-31
COLO 205 = system: COLO 205
CAKI-1 = system: CAKI-1
KM-20L2 = system: KM-20L2
RPMI-8226 = system: RPMI-8226
786-0 = system: 786-0
M14 = system: M14
IGROV-1 = system: IGROV-1
EKVX = system: EKVX
A498 = system: A498
HOP-92 = system: HOP-92
SNB-75 = system: SNB-75
SN12C = system: SN12C
HL-60 = system: HL-60
MDA-MB-435 = system: MDA-MB-435
NCI/ADR-RES = system: NCI/ADR-RES
PC-3 = system: PC-3

Measured: GI50

O=C(CCc1n[nH]c(=S)o1)Nc1cc(Cl)c(Cl)cc1Cl
inactive: K562 18.9 µM | UACC-62 21.9 µM | SK-MEL-28 60.1 µM | UO-31 68.2 µM | COLO 205 31.8 µM | CAKI-1 27.2 µM | KM-20L2 45.8 µM | RPMI-8226 20.5 µM | 786-0 22.5 µM | M14 83.6 µM | IGROV-1 34.6 µM | EKVX 36.9 µM | A498 36.9 µM | HOP-92 48.8 µM | SNB-75 89.1 µM | SN12C > 100 µM | HL-60 33.3 µM

C[C@]12CCC3[C@@H](CC[C@@H]4c5nonc5CC[C@]34C)C1CC[C@@H]2O (stereo partly drawn)
inactive: K562 34.3 µM | UACC-62 30.9 µM | SK-MEL-28 21.1 µM | UO-31 > 10 µM | COLO 205 30.4 µM | CAKI-1 19.8 µM | KM-20L2 43.7 µM | RPMI-8226 14.5 µM | 786-0 25.3 µM | M14 23.6 µM | IGROV-1 41.8 µM | EKVX 23.8 µM | A498 25.2 µM | HOP-92 23 µM | SNB-75 27.2 µM | SN12C 22.1 µM | HL-60 18.3 µM

COc1cc(/C=C2\NC(=S)C3Cc4c(OC)c(C)c(OC)c(OC)c4C2N3C)c(OC)c(C)c1OC (stereo not drawn)
inactive: K562 49.4 µM | UACC-62 98.4 µM | SK-MEL-28 > 100 µM | UO-31 21.2 µM | COLO 205 16.5 µM | CAKI-1 58.1 µM | KM-20L2 64 µM | RPMI-8226 25.6 µM | 786-0 73.1 µM | M14 42.8 µM | IGROV-1 > 100 µM | EKVX 36.8 µM | A498 63.5 µM | HOP-92 9.38 µM | SNB-75 > 100 µM | SN12C > 100 µM | HL-60 25.2 µM

Cc1ccccc1/N=N/c1c(-c2ccccc2)nn(C(=O)CC(=O)Nc2cccc(Cl)c2)c1-c1ccccc1
inactive: K562 16.8 µM | UACC-62 22 µM | SK-MEL-28 > 31.5 µM | UO-31 14.5 µM | COLO 205 14.9 µM | CAKI-1 31.6 µM | KM-20L2 21.5 µM | RPMI-8226 12.1 µM | 786-0 18.5 µM | M14 22.1 µM | IGROV-1 > 31.6 µM | EKVX 28.4 µM | A498 19 µM | HOP-92 26.3 µM | SNB-75 28.2 µM | SN12C 15.8 µM | HL-60 17.3 µM

O=C(O)CCCc1ccc(N(CCCl)CCCl)cc1 [CHLORAMBUCIL]
inactive: K562 107 µM | UACC-62 20 µM | SK-MEL-28 106 µM | UO-31 70.1 µM | COLO 205 115 µM | CAKI-1 17.3 µM | KM-20L2 132 µM | RPMI-8226 76 µM | MDA-MB-435 126 µM | NCI/ADR-RES 56.9 µM | 786-0 30.9 µM | M14 62.7 µM | IGROV-1 115 µM | EKVX 163 µM | PC-3 99.3 µM | A498 125 µM | HOP-92 63.7 µM | SNB-75 54 µM | SN12C 35.5 µM | HL-60 8.22 µM
